Assays:
J774.2 macrophages = assay: Cytotoxicity test for macrophages (flow cytometry); type: cell-based, BALB/c rat; conditions: Mus musculus, J774.2, 72 h, J774.2 macrophages after 72 h of culture; read-out: Macrophage toxicity IC50
Method: J774.2 macrophages (ECACC number 91051511) were originally obtained from a tumour in a female BALB/c […] in 1968. The cytotoxicity test for macrophages was performed according to the methodology of González et al.. After 72 hours of treatment, cell viability was determined by flow cytometry. Thus, 100 μL/well of propidium iodide solution ([…]) was added and incubated for 10 min at 28°C in darkness. Afterwards, 100 μL/well of fluorescein diacetate (100 ng/mL) was added and incubated under the same conditions. Finally, the cells were recovered by centrifugation at 400 g for 10 min and the precipitate washed with phosphate buffered saline (PBS). Flow cytometric analysis was performed with a FACSVantage flow cytometer (Becton Dickinson). The percentage viability was calculated in comparison with the control culture. The IC50 was calculated using linear regression analysis from the Kc values of the concentrations employed.

[1] = test system: L. infantum promastigotes; assay: Metabolite excretion (1H-NMR); type: cell-based, Leishmania infantum; conditions: IC25, 96 hours, vs control
Method: (§1) Cultures of L. infantum and L. braziliensis promastigotes (initial concentration 5 × 10^5 cells/mL) received IC25 concentrations of the compounds (except for control cultures). After incubation for 96 hours at 28°C, the cells were centrifuged at 400 g for 10 min. Then supernatants were collected to determine the excreted metabolites using ^1H-NMR, and, eventually, chemical displacements were expressed in parts per million (ppm), using sodium 2,2-dimethyl-2-silapentane-5-sulphonate as the reference signal. The chemical displacements used to identify the respective metabolites were consistent with those described by Fernández-Becerra et al.

[2] = test system: L. infantum intracellular amastigote forms; assay: Intracellular amastigote forms assay in J774.2 macrophages; type: cell-based, Leishmania infantum; conditions: for SI Intracellular amastigote forms / number of times that compound SI exceeds the reference drug SI, Intracellular amastigote forms: L. infantum; for SI Intracellular amastigote forms: IC50 macrophages/IC50 parasite form; for number of times that compound SI exceeds the reference drug SI, Intracellular amastigote forms: in brackets, reference Glucantime; for IC50: Leishmania infantum, L. infantum in J774.2 macrophages, 72 h
Method: (§2) Cells were seeded at a density of 1 × 10^4 cells/well in 24-well microplates (Nunc) with rounded coverslips on the bottom and cultured for 2 days. Afterwards the cells were infected in vitro with promastigote forms of L. infantum and L. braziliensis, at a ratio of 10 : 1 during 24 hours. The non-phagocytosed parasites were removed by washing, and then the drugs (at 1, 10, 25, 50, 100 μM) were added. Macrophages with the drugs were incubated for 72 hours at 37°C in 5% CO2.
(§3) Drug activity was determined on the basis of number of amastigotes in treated and untreated cultures in methanol-fixed and Giemsa-stained preparations. The number of amastigotes was determined by analyzing 200 host cells distributed in randomly chosen microscopic fields. The antileishmanial effect is expressed as the IC50 values are the means of three separate determinations.

L. infantum = assay: Infection assay in J774.2 macrophages; type: cell-based, Leishmania infantum; conditions: IC25 concentration; for infection rate decrease, percentage of inhibition capacity: with respect to control
Method: (§4) J774.2 macrophage cells were grown under the same conditions expressed in amastigote forms assay during two days. Afterwards, the cells were infected in vitro with promastigote forms of L. infantum and L. braziliensis, at a ratio of 10 : 1. The drugs (IC25 concentrations) were added immediately after infection and were incubated for 12 hours at 37°C in 5% CO2. The nonphagocytosed parasites and the drugs were removed by washing, and then the infected cultures were grown for 10 days in fresh medium. Fresh culture medium was added every 48 h. The drug activity was determined from the percentage of infected cells and the number of amastigotes per infected cell (in treated and untreated cultures) in methanol-fixed and Giemsa-stained preparations. The percentage of infected cells and the mean number of amastigotes per infected cell were determined by analyzing 200 host cells distributed in randomly chosen microscopic fields. Values are the average of three separate determinations.

[3] = test system: L. braziliensis promastigote forms; assay: Promastigote forms assay; type: cell-based, Leishmania braziliensis; conditions: for SI Promastigote forms: IC50 macrophages/IC50 parasite form; for IC50: Leishmania braziliensis, 72 h; for number of times that compound SI exceeds the reference drug SI, Promastigote forms: in brackets, reference Glucantime
Method: (§5) The compounds obtained were dissolved in the culture medium, at dosages of 100, 50, 25, 10, and 1 μM. The effects of each compound against promastigote forms were tested at 72 hours using a Neubauer haemocytometric chamber. The antileishmanial effect is expressed as the IC50, that is, the concentration required to give 50% inhibition, calculated by linear regression analysis from the Kc values of the concentrations employed.

[4] = test system: L. infantum promastigote forms; assay: Promastigote forms assay; type: cell-based, Leishmania infantum; conditions: for SI Promastigote forms: IC50 macrophages/IC50 parasite form; for IC50: Leishmania infantum, 72 h; for times SI exceeds the reference drug SI (all forms): extracellular and intracellular forms; for times SI exceeds the reference drug SI (all forms) / number of times that compound SI exceeds the reference drug SI, Promastigote forms: reference Glucantime; for number of times that compound SI exceeds the reference drug SI, Promastigote forms: in brackets
Method: as §5

[5] = test system: L. braziliensis intracellular amastigote forms; assay: Intracellular amastigote forms assay in J774.2 macrophages; type: cell-based, Leishmania braziliensis; conditions: for SI Intracellular amastigote forms / number of times that compound SI exceeds the reference drug SI, Intracellular amastigote forms: L. braziliensis; for SI Intracellular amastigote forms: IC50 macrophages/IC50 parasite form; for number of times that compound SI exceeds the reference drug SI, Intracellular amastigote forms: in brackets, reference Glucantime; for IC50: Leishmania braziliensis, L. braziliensis in J774.2 macrophages, 72 h
Method: as §2, §3

[6] = test system: L. braziliensis promastigotes; assay: Ultrastructural alterations (TEM); type: cell-based, Leishmania braziliensis; conditions: IC25, 96 hours
Method: (§6) The parasites were cultured at a density of 5 × 10^5 cells/mL in MTL medium, and the cultures contained drugs at the IC25 concentration.
(§7) After 96 hours, those cultures were centrifuged at 400 g for 10 min, and the pellets produced were washed in PBS and then mixed with 2% (v/v) P-formaldehyde-glutaraldehyde in 0.05 M cacodylate buffer (pH 7.4) for 4 hours at 4°C. After that, the pellets were prepared for TEM employing the technique of González et al..

[7] = test system: L. braziliensis axenic amastigote forms; assay: Axenic amastigote forms assay; type: cell-based, Leishmania braziliensis; conditions: for SI Axenic amastigote forms: IC50 macrophages/IC50 parasite form; for IC50: Leishmania braziliensis, 48 hours per method (72 h); for number of times that compound SI exceeds the reference drug SI, Axenic amastigote forms: in brackets, reference Glucantime
Method: (§8) Axenic amastigotes forms of L. infantum and L. braziliensis were cultured following the methodology described previously by Moreno et al.. Thus, promastigote transformation to amastigotes was obtained after three days of culture in M199 medium (Invitrogen, Leiden, The Netherlands) supplemented with 10% heat-inactivated FCS, 1 g/L β-alanine, 100 mg/L L-asparagine, 200 mg/L sacarose, 50 mg/L sodium pyruvate, 320 mg/L malic acid, 40 mg/L fumaric acid, 70 mg/L succinic acid, 200 mg/L α-ketoglutaric acid, 300 mg/L citric acid, 1.1 g/L sodium bicarbonate, 5 g/L MES, 0.4 mg/L hemin, and 10 mg/L gentamicin pH 5.4 at 37°C. The effect of each compound against axenic amastigotes forms was tested at 48 hours using a Neubauer haemocytometric chamber. The antileishmanial effect is expressed as the IC50.

[8] = test system: L. braziliensis promastigotes; assay: Metabolite excretion (1H-NMR); type: cell-based, Leishmania braziliensis; conditions: IC25, 96 hours, vs control
Method: as §1

[9] = test system: L. infantum promastigotes; assay: Ultrastructural alterations (TEM); type: cell-based, Leishmania infantum; conditions: IC25, 96 hours
Method: as §6, §7

[10] = test system: L. infantum axenic amastigote forms; assay: Axenic amastigote forms assay; type: cell-based, Leishmania infantum; conditions: for SI Axenic amastigote forms: IC50 macrophages/IC50 parasite form; for IC50: Leishmania infantum, 48 hours per method (72 h); for number of times that compound SI exceeds the reference drug SI, Axenic amastigote forms: in brackets, reference Glucantime
Method: as §8

L. braziliensis = assay: Infection assay in J774.2 macrophages; type: cell-based, Leishmania braziliensis; conditions: IC25 concentration; for infection rate decrease, percentage of inhibition capacity: with respect to control
Method: as §4

| Structure (SMILES) | IC50 (J774.2 macrophages) [µM] | change in excreted catabolites [1] | SI Intracellular amastigote forms [2] | number of times that compound SI exceeds the reference drug SI, Intracellular amastigote forms [2] | decrease of average number of amastigotes per infected macrophage cell (L. infantum) [%] | infection rate decrease, percentage of inhibition capacity (L. infantum) [%] | SI Promastigote forms [3] | IC50 [3] [µM] | number of times that compound SI exceeds the reference drug SI, Promastigote forms [3] | SI Promastigote forms [4] | times SI exceeds the reference drug SI (all forms) [4] | number of times that compound SI exceeds the reference drug SI, Promastigote forms [4] | SI Intracellular amastigote forms [5] | number of times that compound SI exceeds the reference drug SI, Intracellular amastigote forms [5] | IC50 [5] [µM] | SI Axenic amastigote forms [7] | IC50 [7] [µM] | number of times that compound SI exceeds the reference drug SI, Axenic amastigote forms [7] | change in excreted catabolites [8] | ultrastructural alterations by TEM [9] | also measured |
| --- | --- | --- | --- | --- | --- | --- | --- | --- | --- | --- | --- | --- | --- | --- | --- | --- | --- | --- | --- | --- | --- |
| C[C@H]1O[C@H](Oc2cc(O)c3c(=O)c(O[C@@H]4O[C@H](CO)[C@@H](O)[C@H](O)[C@H]4O)c(-c4ccc(O)c(O)c4)oc3c2)[C@@H](O)[C@@H](O)[C@@H]1O [Compound 7, petiolaroside] | > 1000 | an increase in the production of malate, succinate, ethanol, and lactate, but a decrease of excreted acetate and alanine levels | >36.0 | 72 | 49 | 77 | >47.4 | 21.1 ± 1.7 | 79 | >40.8 | more than 50 times | 51 | >29.5 | 59 | 33.9 ± 3.5 | >51.3 | 19.5 ± 0.8 | 103 | decreases in the excretion of acetate | no induction of substantial alterations | IC50 [2]: 27.8 ± 1.4 µM; IC50 [4]: 24.5 ± 1.1 µM; ultrastructural alterations by TEM [6]: All these changes occurred; SI Axenic amastigote forms [10]: >51.5; IC50 [10]: 19.4 ± 1.4 µM; number of times that compound SI exceeds the reference drug SI, Axenic amastigote forms [10]: 86; decrease of average number of amastigotes per infected macrophage cell (L. braziliensis): 55%; infection rate decrease, percentage of inhibition capacity (L. braziliensis): 69% |
| CC(=O)O[C@H]1[C@H](Oc2c(-c3ccc(O)c(O)c3)oc3cc(O[C@@H]4O[C@@H](C)[C@H](O)[C@@H](O)[C@H]4O)cc(O)c3c2=O)O[C@H](CO)[C@@H](O)[C@@H]1O [Compound 8, 2′′-acetylpetiolaroside] | > 1000 | an increase in the excretion of succinate, and acetate, followed by malate, alanine, lactate and ethanol | >31.2 | 62 | 78 | 95 | >34.5 | 29 ± 1.5 | 58 | 52.4 | more than 50 times | 66 | >49.8 | 100 | 20.1 ± 1.7 | >39.2 | 25.5 ± 0.7 | 78 | decreases in the excretion of acetate | many of the parasites adopted distorted shapes with distorted cytoplasm | IC50 [2]: 32.1 ± 2 µM; ultrastructural alterations by TEM [6]: induced changes in the shape of parasites, with them showing completely altered forms; SI Axenic amastigote forms [10]: >54.3; IC50 [10]: 18.4 ± 1.3 µM; number of times that compound SI exceeds the reference drug SI, Axenic amastigote forms [10]: 91; decrease of average number of amastigotes per infected macrophage cell (L. braziliensis): 82%; infection rate decrease, percentage of inhibition capacity (L. braziliensis): 88% |
| CC(=O)OC[C@H]1O[C@@H](Oc2cc(OC(C)=O)c3c(=O)c(O[C@@H]4O[C@H](COC(C)=O)[C@@H](OC(C)=O)[C@H](OC(C)=O)[C@H]4OC(C)=O)c(-c4ccc(OC(C)=O)cc4)oc3c2)[C@H](OC(C)=O)[C@@H](OC(C)=O)[C@@H]1OC(C)=O [Compound 6] | > 1000 | an increase in the excretion of succinate, and acetate, followed by malate, alanine, lactate and ethanol | 24.8 | 50 | 24 | 71 | >31.9 | 31.3 ± 3 | 53 | >43.3 | more than 50 times | 54 | >32.9 | 66 | 30.4 ± 2.7 | >35.7 | 28 ± 1.6 | 71 | decreases in the excretion of acetate | induced empty vacuoles, lipid vacuoles, and a large number of electrodense vesicles | IC50 [4]: 23.1 ± 4.6 µM; SI Axenic amastigote forms [10]: >32.8; IC50 [10]: 30.5 ± 2.3 µM; number of times that compound SI exceeds the reference drug SI, Axenic amastigote forms [10]: 55; decrease of average number of amastigotes per infected macrophage cell (L. braziliensis): 69%; infection rate decrease, percentage of inhibition capacity (L. braziliensis): 82% |

Reference: article PMC3366211, “Leishmanicidal Activity of Nine Novel Flavonoids from Delphinium staphisagria” (The Scientific World Journal, 2012)
